Measured values published in patent US20060110804A1, “Method of treating an organ for transplantation” (priority 2004, published 2006).
Entries after “also recorded” stand apart in the source; their conditions may differ. Where two headings read alike, the source gives them in different places.

Assays:
liver grafts [1] = assay: Bile salts and phospholipids in bile of ex vivo reperfused liver grafts (enzyme inhibition assay); set-up: species or system rat; details: hemin-treated C16 grafts, 30 minute reperfusion, concentration of 5 μmol/L or less
Description: To examine whether bilirubin and/or CO could recover the HO-1-inducing effect inhibited by ZnPP, a strong HO activity inhibitor, the following experiment was carried out. The grafts were reperfused with carbogen-saturated Krebs-Henseleit buffer (pH 7.4, 37° C.) supplemented with bilirubin (Sigma Chemical, Co.) and/or CO in combination with 1 μmol/L ZnPP. […] The total amounts of bile salts and phospholipids in bile samples were measured by enzyme inhibition assay according to a reported method (see Document 23).
An attempt was made to examine dose-dependent effects of bilirubin and/or CO during co-perfusion. […] After being cold-preserved for 16 hours, the hemin-treated grafts were reperfused for 30 minutes in the presence of ZnPP using reperfusate containing various concentrations of bilirubin and/or CO, and then measured for the levels of bile output, bile salts and phospholipids in bile from the grafts, which were determined in percentages relative to those obtained by reperfusion in the absence of ZnPP.

liver grafts [2] = assay: Bile output of cold-preserved liver grafts during ex vivo reperfusion; set-up: species or system rat; details: for bile output vs bilirubin-free control: hemin-untreated C16 grafts, 5 μmol/L bilirubin
Description: The rats injected with hemin or physiological saline were anesthetized by intraperitoneal injection of pentobarbital sodium (40 mg/kg body weight) and a PE-10 catheter for bile sample collection was inserted into the common bile duct of each rat. A 16-gauge catheter was inserted into the portal vein and 20 ml lactated Ringer's solution kept at 4° C. was passed through the catheter. Subsequently, rat livers were perfused with 20 ml University of Wisconsin solution (UW solution) of 4° C., excised and then preserved in the same solution at 4° C. for 16 hours. […] After cold preservation for 16 hours, each liver graft was reperfused via the portal vein with 95% oxygen-5% carbon dioxide-saturated Krebs-Henseleit buffer (pH 7.4, 37° C.) at 4 ml/min/g liver in the presence of 30 μmol/L sodium taurocholate (see Document 4).
In the hemin-treated liver grafts from Example 1, after 16-hour cold preservation (Hemin/C16), bile samples were collected from the common bile duct every 5 minutes during 40 minute reperfusion. […] The hemin-untreated grafts receiving no cold preservation (Control) and 16-hour cold preservation (C16) were also provided for the same measurement.
The grafts were reperfused with carbogen-saturated Krebs-Henseleit buffer (pH 7.4, 37° C.) supplemented with bilirubin (Sigma Chemical, Co.) and/or CO in combination with 1 μmol/L ZnPP. […] Similarly, hemin-untreated (a) and hemin-treated (b) grafts were provided in the absence of ZnPP for use as controls.
The same experiment as described in Example 4 was repeated, except that the doses of bilirubin and/or CO were varied. After being cold-preserved for 16 hours, the hemin-treated grafts were reperfused for 30 minutes in the presence of ZnPP using reperfusate containing various concentrations of bilirubin and/or CO, and then measured for the levels of bile output, bile salts and phospholipids in bile from the grafts, which were determined in percentages relative to those obtained by reperfusion in the absence of ZnPP.

liver grafts [3] = assay: Bilirubin-IXα concentration in bile of ex vivo reperfused liver grafts (ELISA, antibody 24G7); set-up: species or system rat
Description: (§1) The rats injected with hemin or physiological saline were anesthetized by intraperitoneal injection of pentobarbital sodium (40 mg/kg body weight) and a PE-10 catheter for bile sample collection was inserted into the common bile duct of each rat. A 16-gauge catheter was inserted into the portal vein and 20 ml lactated Ringer's solution kept at 4° C. was passed through the catheter. Subsequently, rat livers were perfused with 20 ml University of Wisconsin solution (UW solution) of 4° C., excised and then preserved in the same solution at 4° C. for 16 hours. Since acute oxidative stress would eventually occur, as judged by intracellular hydroperoxide production which occurred concurrently with a reduction of bile formation, a time period of 16 hours was selected for preservation purposes. […]
In the hemin-treated liver grafts from Example 1, after 16-hour cold preservation (Hemin/C16), bile samples were collected from the common bile duct every 5 minutes during 40 minute reperfusion. The bile samples collected at 30 minutes after initiation of reperfusion were also measured for their bilirubin-IXα concentration by enzyme-linked immunosorbent assay detection using the monoclonal antibody 24G7 capable of recognizing both conjugated and unconjugated bilirubin fractions, as described in earlier documents (see Documents 21 and 22). […]

liver grafts [4] = assay: LDH released into hepatic venous perfusate of ex vivo reperfused liver grafts (liver cell damage); set-up: species or system rat
Description: As in the case of Example 5, after being cold-preserved for 16 hours, the hemin-treated grafts were reperfused for 30 minutes in the presence of ZnPP using reperfusate containing varying concentrations of bilirubin, and then measured for the amount of lactate dehydrogenase (LDH) released into the hepatic venous perfusate, which was indicative of liver cell damage in the grafts. For use as controls, hemin-untreated grafts receiving 16-hour cold preservation (C16) and hemin-treated grafts receiving 16-hour cold preservation (Hemin/C16) were provided in the absence of ZnPP. The amount of LDH was measured as described in an earlier document (see Document 24). […] The grafts were divided into the following test groups: (a) receiving 5 minute reperfusion with the bilirubin-containing buffer and subsequent 35 minute reperfusion in the absence of bilirubin, (b) receiving 15 minute reperfusion with the bilirubin-containing buffer and subsequent 25 minute reperfusion in the absence of bilirubin, and (c) receiving 40 minute perfusion with the bilirubin-containing buffer. As a control group (d), the cold-preserved grafts received only bilirubin-free perfusion for 40 minutes. Bile output was then measured over time for each group. Further, FIGS. 6(B) and (C) show the relationship between reperfusion time with the bilirubin-containing buffer and bile output from the grafts and the relationship between reperfusion time and venous LDH concentration, respectively.

HO-1 protein = HO-1 protein expression in liver grafts by Western blot analysis; set-up: species or system rat; details: hemin-treated (40 μmol/kg i.p.) vs hemin-untreated grafts
Description: (§2) Male Wistar rats of 190-230 g were allowed to take pellet chow and water without any restriction and then fasted for 6 hours. Subsequently, the rats were intraperitoneally injected with 40 μmol/kg hemin, a strong HO-1 inducer, and then fasted for 18 hours. […] As a hemin-untreated control, rats injected with physiological saline were fasted for 24 hours and then used for the experiment.
as §1, with “hours.” for “hours. Since acute oxidative stress would eventually occur, as judged by intracellular hydroperoxide production which occurred concurrently with a reduction of bile formation, a time period of 16 hours was selected for preservation purposes.”
(§3) The grafts prepared in Example 1 were measured for HO-1 protein expression by Western blot analysis, as described in an earlier document (see Document 20). CO fluxes in hepatic venous flow were also measured with a spectrophotometer according to a previously reported method of the inventors (see Document 16). […]

[5] = hemin-treated rats, n=4; cited from earlier work
liver grafts [6] = assay: CO fluxes in hepatic venous perfusate of ex vivo liver grafts (spectrophotometer); set-up: species or system rat
Description: as §2
as §1, with “hours.” for “hours. Since acute oxidative stress would eventually occur, as judged by intracellular hydroperoxide production which occurred concurrently with a reduction of bile formation, a time period of 16 hours was selected for preservation purposes.”
as §3

liver grafts [7] = type: in vivo; details: grafts washed with 50 μmol/L bilirubin-containing Ringer's solution
Description: (§4) To examine in vivo effects of HO-1 preconditioning, a model experiment for liver isograft transplantation was carried out. Male inbred Lewis rats of 220-280 g were allowed to drink water without any restriction, fasted for 24 hours before the experiment, and provided for use as donors and recipients for liver transplantation. In HO-1 preconditioning groups, the rats were hemin-treated at 18 hours before graft preparation in the same manner as used in the ex vivo experiment of Example 1. Liver transplantation was performed according to the technique developed by Kamada (see Document 25) with minor modifications. More specifically, the donors were anesthetized by intraperitoneal injection of pentobarbital sodium (40 mg/kg body weight) and then laparotomized. […]
(§5) In light of Example 7 showing that short-term washing with bilirubin was effective for recovery of post-reperfusion stasis and cell injury in the liver grafts cold-preserved for 16 hours, further attempts were made to examine the in vivo effect of bilirubin washing against post-transplantation injury in the cold-preserved grafts. […] The level of bile output was measured at 30 minutes and 24 hours after initiation of reperfusion. To determine the degree of graft injury at 24 hours after initiation of reperfusion, blood levels of aspartate aminotransferase (AST), alanine aminotransferase (ALT) and LDH were measured in a standard manner. […]

liver grafts [8] = assay: Liver isograft transplantation model: bile output after initiation of reperfusion; type: in vivo, rat; details: grafts washed with Ringer's solution containing a higher concentration of bilirubin than 5 to 10 μmol/L
Description: as §4, §5

liver parenchymal cells = assay: Immunohistological detection of bilirubin in graft tissue with monoclonal antibody 24G7; type: in vivo, rat
Description: To examine the effect of bilirubin washing on the accessibility of bilirubin to graft tissues, immunohistological detection of bilirubin was performed using the anti-bilirubin-IXα monoclonal antibody 24G7 according to a previously reported method of the inventors (see Document 27). As observed in the grafts perfused with bilirubin-free lactated Ringer's solution (A), the monoclonal antibody 24G7 triggered an immune reaction primarily in liver non-parenchymal cells including Kupffer cells.

liver grafts [9] = assay: Liver isograft transplantation model: blood levels of AST, ALT and LDH (graft injury); type: in vivo, rat; details: washing with irrigation solution containing a higher concentration of bilirubin than 5 to 10 μmol/L
Description: as §4, §5

[10] = hemin-treated grafts, 16-hour cold preservation, reperfused with 1 μmol/L of the protoporphyrin

In the case of `[C-]#[O+]` [CO, carbon monoxide], the “percentage of bile salts in bile relative to reperfusion in the absence of ZnPP” value (liver grafts [1]) was “no recovery”, the “percentage of phospholipids in bile relative to reperfusion in the absence of ZnPP” value (liver grafts [1]) was “no recovery” and the “recovery of ZnPP-induced reduction of bile output” value (liver grafts [2]; hemin-treated C16 grafts, 30 minute co-perfusion, 1 μmol/L ZnPP, 5 μmol/L of each test substance) was “could not achieved”. The “percentage of bile output relative to reperfusion in the absence of ZnPP” value (liver grafts [2]; hemin-treated C16 grafts, ZnPP, 30 minute reperfusion, concentration of 5 μmol/L or less) was “no recovery”.

In the case of `C=CC1=C(C)c2cc3[n-]c(cc4[n-]c(cc5nc(cc1n2)C(C)=C5C=C)c(C)c4CCC(=O)O)c(CCC(=O)O)c3C.[Zn+2]` [ZnPP, zinc protoporphyrin-IX], the “bilirubin levels in bile” value (liver grafts [3]; hemin-treated C16 grafts, co-perfusion with 1 μmol/L ZnPP compared to CuPP) was “significant decrease”, the “venous LDH release” value (liver grafts [4]) was “significantly increased” and the bile output (liver grafts [2]; [10]) was “reduced bile output; also recorded: canceled the effect of hemin treatment”.

In the case of hemin, the HO-1 expression (HO-1 protein) is listed as “significant increases”, the “bilirubin fluxes in bile, relative to hemin-untreated group” value (liver grafts [3]; hemin-treated, cold-preserved 16 hours, reperfused 30 minutes) is listed as “about 1.5 fold” and the “plasma bilirubin concentration in portal blood” value [5] is listed as 3.2 ± 0.8 µmol/L. The “venous LDH release” value (liver grafts [4]; hemin-treated control, 16-hour cold preservation (Hemin/C16), no ZnPP) was “almost complete inhibition”, the bile output (liver grafts [2]; hemin-treated grafts after 16-hour cold preservation (Hemin/C16) vs hemin-untreated cold-preserved grafts (C16)) was “higher plateau; also recorded: increase in bile output” and the “time of bile output recovery after initiation of reperfusion” value (liver grafts [2]; hemin-treated grafts, 16-hour cold preservation (Hemin/C16)) was 10 min. The “venous CO fluxes” value (liver grafts [6]; hemin-treated (40 μmol/kg i.p.) vs hemin-untreated grafts) was “significant increases” and the “increase in hepatic venous CO fluxes” value (liver grafts [6]; hemin-treated grafts, 16-hour cold preservation with or without 30 minute reperfusion, vs hemin-untreated grafts) was roughly 3 fold.

For copper protoporphyrin-IX [CuPP], the bile output (liver grafts [2]; [10]) was “substantially the same bile output”.

In the case of `C=CC1=C(C)/C(=C/c2[nH]c(Cc3[nH]c(/C=C4\NC(=O)C(C)=C4C=C)c(C)c3CCC(=O)O)c(CCC(=O)O)c2C)NC1=O` [bilirubin], the “rats able to survive for 24 hours after transplantation” value (liver grafts [7]) was “None”, the “bile output after transplantation” value (liver grafts [8]) was “cholestasis occurred” and the “LDH release (graft damage)” value (liver grafts [4]; hemin-untreated C16 grafts, prolonged reperfusion with 5 μmol/L bilirubin-containing buffer) was “increases in LDH release”. The “adverse effect on bile secretion or cell survival” value (liver grafts [2]; hemin-treated C16 grafts, 30 minutes, 5 μmol/L bilirubin in the presence of ZnPP) was “no adverse effect”, the “bile output vs bilirubin-free control” value (liver grafts [2]; 15 minute reperfusion then 25 minutes without bilirubin) was “significant decrease” and the “bile output vs bilirubin-free control” value (liver grafts [2]; 40 minute perfusion) was “significant decrease”. For the same molecule, the “accessibility of bilirubin to liver parenchymal cells (immune reaction)” value (liver parenchymal cells; grafts washed with bilirubin-containing Ringer's solution) was “highly absorbed into liver parenchymal cells”, the “accessibility of bilirubin to liver parenchymal cells (immune reaction)” value (liver parenchymal cells; grafts washed with bilirubin-containing Ringer's solution supplemented with PPF) was “accessibility of bilirubin was canceled” and the “cell injury (sAST, sALT, sLDH) at 24 hours after transplantation” value (liver grafts [9]) was “exacerbation of cell injury”.
